“Also recorded” adds a separate entry of the source.
Assays:
[1] = test system: TAMs; assay: ex vivo differentiated TAMs treated with compound, marker expression by flow cytometry (FIG. 1b); type: cell-based, mouse; conditions: oleuropein 50 μM
Experimental: (§1) Immunosuppressive myeloid cell subsets resembling tumor-infiltrating subsets (g-MDSCs, m-MDSCs and TAMs) were differentiated from mouse bone marrow following published procedures using conditioning medium produced by LLC tumor cells stably expressing GMCSF and MCSF cells. g- and m-MDSCs were purified using the myeloid-derived suppressor cell isolation kit (Miltenyi Biotec, Bergisch, Germany) according to manufacturer's recommendations. MDSCs and TAMs were seeded with 500 nM BML-275 or 50 μM oleuropein and incubated for seven days.
Surface and intracellular staining were carried out as described before with the following fluorochrome-conjugated antibody clones: AF488 anti-CD49d (R1-2), PE anti-CD4 (GK1.5), APCanti-CD8(53-6.7), brilliant Violet 510™ anti-I-A/I-E (M5/114.15.2,PE/Cyanine7anti-Ly-6G (1A8), and APC anti-CD80 (16-10A1) (Biolegend), FITC anti-IL-12 (C15.6) and BV421 anti-IL-2 (JES6-5H4) (BD Bioscience), APC-Vio® 770 anti-Ly-6C (REA796), PE REAfinity™ anti-F4/80 (REA126), and APC anti-CD68 (REA886) (Miltenyi), PerCP-Cyanine5.5 Anti-Human/Mouse CD11b (M1/70) (Tonbo), and AF488 anti-IFNγ (Clone XMG1.2) (BD Pharmigen). For human cells, it was used the following fluorochrome-conjugated antibodies: PerCP-Cy5.5-anti-CD11b (integrina alfa M) (M1/70), Violet Fluor 450 anti-CD14 antibody (61D3) (Tonbo), PE anti-CD115 (CSF-1R) (9-4D2-1E4) (Biolegend), PE-Cy™7 anti-CD11c (Clone B-ly6) (BD Bioscience), and APC anti-HLA-DR (REA517) (Miltenyi).
Data were collected using the FACSCanto Flow Cytometer (BD Biosciences) for ex vivo and in vitro experiments at Navarrabiomed Biomedical Research Center and Cyroflex LX flow cytometer (Beckman Counter). Data were analyzed with Flowjo.

[2] = test system: TAMCs; assay: quantitative proteomics and Ingenuity Pathway Analysis of TAMCs (FIG. 2); type: cell-based, mouse
Experimental: as §1
(§2) A unique proteomic experiment was carried out with five biological replicates per sample (m-MDSC, g-MDSC and TAM). Cells were homogenized in a lysis buffer containing 7 M urea, 2 M thiourea 50 mM DTT. The homogenates were spun down at 14000 g for 1 h at 15 °C. Before proteomic analysis, protein extracts were diluted with Laemmli sample buffer in 100 μL and loaded into a 0.75 mm thick polyacrylamide gel with a 4% stacking gel casted over a 12.5% resolving gel. The run was stopped as soon as the front entered 3 mm into the resolving gel so that the whole proteome became concentrated in the stacking/resolving gel interface. Bands were stained with Coomassie Brilliant Blue, excised from the gel and protein enzymatic cleavage was carried out with trypsin (Promega; 1:20, w/w) at 37 °C for 16 h as previously described. Purification and concentration of peptides was performed using C18 Zip Tip Solid Phase Extraction (Millipore).
(§3) Peptide mixtures were separated by reverse phase chromatography using an UltiMate 3000 UHLPC System (Thermo Scientific) fitted with an Aurora packed emitter column (lonopticks, 25 cm×75 μm ID, 1.6 μm C18). Samples were first loaded for desalting and concentration into an Acclaim PepMap column (ThermoFisher, 0.5 cm×300 μm ID, 5 μm C18) packed with the same chemistry as the separating column. Mobile phases were 100% water 0.1% formic acid (FA) (buffer A) and 100% Acetonitrile 0.1% FA (buffer B). Column gradient was developed in a 120 min two step gradient from 5% B to 20% B in 90 min and 20% B to 32% B in 30 min. Column was equilibrated in 95% B for 10 min and 5% B for 20 min. During the whole process, the precolumn was in line with the column and the flow maintained all along the gradient at 300 nl/min. The column temperature was maintained at 40 °C using an integrated column oven (PRSO-V2, Sonation, Biberach, Germany) and interfaced online with the Orbitrap Exploris 480 MS. Spray voltage were set to 2 kV, funnel RF level at 40, and heated capillary temperature at 300 °C. For DDA experiments full MS resolutions were set to […] at m/z 200 and full MS AGC target was set to Standard with an IT mode Auto. Mass range was set to 375-1500. AGC target value for fragment spectra was set to Standard with a resolution of 15,000 and 3 seconds for cycle time. The intensity threshold was kept at 8E3. Isolation width was set at 1.4 m/z. Normalized collision energy was set at 30%. All data were acquired in centroid mode using positive polarity and peptide match was set to off, and isotope exclusion was on.
(§4) Raw files were processed with MaxQuant v1.6.17.0 using the integrated Andromeda Search engine. All data were searched against a target/decoy version of the mouse Uniprot Reference Proteome with March 2021 release. First search peptide tolerance was set to 20 ppm, main search peptide tolerance was set to 4.5 ppm. Fragment mass tolerance was set to 20 ppm. Trypsin was specified as enzyme, […] carbamidomethylation of cysteine was specified as fixed modification and peptide N-terminal acetylation, oxidation of methionine, deamidation of asparagine and glutamine and pyro-glutamate formation from glutamine and glutamate were considered variable modifications with a total of two variable modifications per peptide. […]

[3] = test system: g-MDSC; assay: quantitative proteomics and Ingenuity Pathway Analysis of g-MDSC; type: cell-based, mouse
Experimental: as §1, §2, §3, §4

[4] = test system: TAMs; assay: quantitative proteomics and Ingenuity Pathway Analysis of TAM; type: cell-based, mouse
Experimental: as §1, §2, §3, §4

[5] = test system: TAMCs; assay: apoptotic effect on myeloid cell populations; type: cell-based
[6] = test system: MDSCs; assay: morphology of ex vivo MDSC cultures, phase contrast micrographs (FIG. 2a); type: cell-based, mouse; conditions: MDSCs treated with oleuropein
Experimental: as §1

[7] = IPA, TAMCs, listed as Oleuropein

`C/C=C1/[C@H](O[C@@H]2O[C@H](CO)[C@@H](O)[C@H](O)[C@H]2O)OC=C(C(=O)OC)[C@H]1CC(=O)OCCc1ccc(O)c(O)c1` [oleuropein] was tested, and the “cells co-expressing MHC-II and CD80” value ([1]; BML-275 500 nM, TAMs) was “significant elevation”, the “polarization of TAMs” value [1] was “polarized MDSCs and TAMs into activated myeloid cells; also recorded: polarized TAMs to activated macrophages” and the IL-12 production ([1]; TAMs) was “upregulated IL-12 production only in the presence of oleuropein”. For the same compound, the CD40 ([2]; IPA, TAMCs) was “down-regulated”, the “Fatty acid β-oxidation I signalling” value ([2]; IPA, TAMCs) was “up-regulated; also recorded: Regulated expression” and the IL-9 signalling ([2]; IPA, TAMCs) was “down-regulated”. For the same compound, the LXR/RXR signalling ([2]; IPA, TAMCs) was “up-regulated; also recorded: Regulated expression”, the RAN signalling ([2]; IPA, TAMCs) was “down-regulated” and the TREM1 ([2]; IPA, TAMCs) was “inhibition; also recorded: inhibited”. The “cyclic adenosine monophosphate (cAMP) pathway” value ([2]; IPA, TAMCs) was “inhibition; also recorded: inhibited”, the estrogen signalling ([2]; IPA, TAMCs) was “downregulated” and the “global reprogramming of TAMCs / immunosuppressive pathways” value ([2]; IPA, TAMCs) was “major reprogramming of intracellular pathways; also recorded: reprograms the immunosuppressive properties of TAMCs; also recorded: major global reprogramming of TAMCs by deactivating immunosuppressive pathways”. For the same compound, the insulin signalling ([2]; IPA, TAMCs) was “downregulated”, the “pathways regulating lipid metabolism (Sirtuin, polyamines, PPAR-a/RXR-a)” value ([2]; IPA, TAMCs) was “altered” and the TREM1 [2, 7] was “reduced”. The “cyclic adenosine monophosphate (cAMP) pathway” value [2, 7] was “down-regulated”, the proteomic profile ([2]; oleuropein-treated vs untreated, FDR<1%) was “distinct proteomic profiles” and the AMPK signaling ([3]; IPA, g-MDSC) was “upregulation”. The EIF2 signalling ([3]; IPA, g-MDSC) was “downmodulated”, the NET signaling ([3]; IPA, g-MDSC) was “upregulation” and the estrogen receptor signalling ([3]; IPA, g-MDSC) was “downmodulated”. The fatty acid beta-oxidation ([3]; IPA, g-MDSC) was “activated”, the fmIP signaling ([3]; IPA, g-MDSC) was “upregulation” and the “granzyme A signalling” value ([3]; IPA, g-MDSC) was “downmodulated”. For the same compound, the mTOR signaling ([3]; IPA, g-MDSC) was “upregulation”, the phospholipids ([3]; IPA, g-MDSC) was “decrease” and the “upstream regulator E2f3” value ([3]; IPA, g-MDSC) was “decrease”. For the same compound, the “upstream regulator Eif6” value ([3]; IPA, g-MDSC) was “increase”, the “upstream regulator Stat4” value ([3]; IPA, g-MDSC) was “inhibited” and the “upstream regulator Tbk1” value ([3]; IPA, g-MDSC) was “inhibited”. The “cellular programming / proteome of g-MDSC” value ([3]; g-MDSC treated with oleuropein) was “acquiring an entirely different proteome”, the “differentiation of myeloid cells to g-MDSC” value ([3]; g-MDSC treated with oleuropein) was “prevented” and the “activated macrophages and pro-inflammatory activities of macrophages” value [4] was “enhances”. The BAG2 signalling ([4]; IPA) was “downregulated”, the EIF2 signalling ([4]; IPA) was “upregulated” and the Flt3 signalling ([4]; IPA) was “upregulated”. For the same compound, the “For-mediated (Fcr-mediated) phagocytosis signalling” value ([4]; IPA) was “upregulation”, the Hif1a signalling ([4]; IPA) was “downregulated” and the fmlp signalling ([4]; IPA) was “upregulated”. The immunosuppressive markers ([4]; IPA) was “downregulation”, the mTOR signalling ([4]; IPA) was “downregulated” and the “For-mediated (Fcr-mediated) phagocytosis signalling” value ([4]; IPA, listed as Oleuropein) was “upregulated”. For the same compound, the apoptotic effect [5] was “does not provide any apoptotic effect” and the morphology [6] was “acquired a dendritic cell-like morphology”.
